Laboratory results reported in US8828416B2 (Cordis Corporation, priority 2004, dated 2014).
pIC50: −log10 of the molar value. Entries after “also recorded” stand apart in the source; their conditions may differ. Like-named read-outs stand apart in the source and are kept apart here.

Tests used:
[1] = cited from earlier work
[2] = In vivo release kinetics of cladribine and rapamycin from coated Bx Velocity stents in Yorkshire pigs; parameters: species or system Yorkshire pig
Source text: FIG. 61 is a graphical representation of the in vivo release kinetics of cladribine from a polymeric coating on Bx Velocity® stents, available from Cordis Corporation, implanted in a Yorkshire pig. The basecoat comprises an 85/15 ratio of PVDF and HFP and cladribine for a total combined weight of one thousand eight hundred micrograms (cladribine comprising thirty percent of the total weight). […]
(§1) The basecoat is applied to Bx Velocity® stents and implanted into Yorkshire pigs.
as §1

[3] = In vivo release kinetics of rapamycin and mycophenolic acid from polymer coatings, porcine pharmacokinetics studies
Source text: The topcoat is two hundred micro grams.

[4] = In vitro release kinetics of rapamycin from a combination of rapamycin and mycophenolic acid; format: in vitro ADME; conditions: FIG. 55
Source text: The in vitro tests were run twice for each coating scenario.

cell viability = assay: Separate cell viability assay of topotecan; format: cell-based; conditions: concentrations up to one micromolar
Source text: (§2) The multiple curves represent various concentrations of topotecan ranging from zero to three hundred nanomolar concentrations.

[5] = tested on: synchronized cultured human coronary artery smooth muscle cells; assay: Anti-proliferative activity in synchronized cultured human coronary artery smooth muscle cells stimulated with two percent fetal bovine serum; format: cell-based; conditions: topotecan zero to three hundred nanomolar, FIG. 64
Source text: as §2

[6] = tested on: human coronary artery smooth muscle cell; conditions: Brehm et al., 2000; cited from earlier work
[7] = tested on: non-synchronized cultured human coronary artery smooth muscle cells; assay: Anti-proliferative activity in non-synchronized cultured human coronary artery smooth muscle cells stimulated with two percent fetal bovine serum; format: cell-based
Source text: The multiple curves represent various concentrations of mycophenolic acid ranging from zero to one thousand nanomolar concentrations.
FIG. 58 illustrates, in graphical format, the anti-proliferative activity of cladribine in non-synchronized cultured human coronary artery smooth muscle cells stimulated with two percent fetal bovine serum.
The multiple curves represent various concentrations of cladribine ranging from zero to nine hundred nanomolar concentrations.

[8] = In vitro release kinetics of cladribine from PVDF/HFP coatings in twenty-five percent ethanol/water; format: in vitro ADME; conditions: room temperature
Source text: FIG. […] The basecoat comprises a ratio of PVDF/ HFP (85/15) and cladribine. Cladribine comprises thirty percent of the basecoat. The topcoat also comprises an 85/15 ratio of PVDF and HFP, but no cladribine. Curve 5902 represents the release kinetics of cladribine wherein the basecoat weight is six hundred micrograms (one hundred eighty micrograms cladribine). Curve 5904 represents the release kinetics of cladribine wherein the basecoat weight is one thousand eight hundred micrograms (five hundred forty micrograms cladribine). Curve 5906 represents the release kinetics of cladribine wherein the basecoat weight is six hundred micrograms (one hunded eighty micrograms cladribine) and the topcoat weight is one hundred micrograms. Curve 5908 represents the release kinetics of cladribine wherein the basecoat weight is one thousand eight hundred micrograms (five hundred forty micrograms cladribine) and the topcoat is three hundred micrograms. Curve 5910 represents the release kinetic of cladribine wherein the basecoat weight is six hundred micrograms (one hundred eighty micrograms cladribine) and the topcoat is three hundred micrograms.
FIG. 60 is a graphical representation of the in vitro release kinetics of cladribine from a sterile PVDF/HFP coating incorporated in a twenty-five percent ethanol/water release medium at room temperature. […]

[9] = tested on: human smooth muscle cells; assay: Inhibition of human vascular cell proliferation with cladribine, smooth muscle cells, PDGF-stimulated cell count; format: cell-based; conditions: from IC50 values 23 and 40 nanomolar
Method: After twenty-four hours, the growth medium was changed and fresh medium containing 10 ng/ml platelet-derived growth factor AB (PDGF AB; LIFE Technologies), as well as various concentrations of cladribine (0.001-10,000 nM) were added with triplicate wells. Medium was replaced with fresh cladribine-containing medium after three days. On day six, cells were detached by trypsinization to yield a cell suspension, lightly centrifuged to pellet and then counted manually using a Neubauer hemocytometer system. Cell viability was assessed by trypan blue exclusion.

tumor cell lines = tumor cell lines (Woo et al., 2002); cited from earlier work
[10] = tested on: human coronary artery smooth muscle cell; assay: Inhibition of coronary artery smooth muscle cell proliferation by trichostatin A, in vitro cell culture; format: cell-based
Source text: FIG. 51 is a graph of the inhibition of coronary artery smooth muscle cells by trichostatin A in a cell culture study.

CC[C@@]1(O)C(=O)OCc2c1cc1n(c2=O)Cc2cc3ccccc3nc2-1 [Camptothecin, camptothecin]
lipid solubility [1]: high lipid solubility | water solubility [1]: poor water solubility

CO[C@H]1C[C@@H]2CC[C@@H](C)[C@@](O)(O2)C(=O)C(=O)N2CCCC[C@H]2C(=O)O[C@H]([C@H](C)C[C@@H]2CC[C@@H](O)[C@H](OC)C2)CC(=O)[C@H](C)/C=C(\C)[C@@H](O)[C@@H](OC)C(=O)[C@H](C)C[C@H](C)/C=C/C=C/C=C/1C [Rapamycin, rapamycin]
in vivo release rates of rapamycin from rapamycin/cladribine EVA/BMA basecoats ([2]; three rapamycin/cladribine loadings, 200 μg BMA topcoat, Yorkshire pigs, FIG. 62): substantially similar to one another | in vivo release of rapamycin from EVA/BMA basecoat, effect of BMA topcoat ([3]; 600 μg basecoat with 180 μg rapamycin and 180 μg mycophenolic acid, no, 100 or 200 μg BMA topcoat, FIG. 53): BMA topcoat does slow the release of rapamycin from the basecoat | in vivo release rate of rapamycin compared with mycophenolic acid ([3]; PVDF basecoat 600 μg with PVDF topcoat 200 μg, FIG. 56): slower release rate than that of mycophenolic acid | in vitro release of rapamycin from EVA/BMA basecoat, effect of BMA topcoat ([4]; 600 μg basecoat with 180 μg rapamycin and 180 μg mycophenolic acid): BMA topcoat does slow the release of rapamycin from the basecoat in in vitro testing | in vitro release rates of rapamycin compared with in vivo ([4]; EVA/BMA basecoat): release rates are faster than in the in vivo testing

CC[C@@]1(O)C(=O)OCc2c1cc1n(c2=O)Cc2cc3c(CN(C)C)c(O)ccc3nc2-1 [Topotecan, topotecan]
cytotoxicity in cell viability assay (cell viability): non-cytotoxic | effect of added topotecan on the anti-proliferative rapamycin dose response curve [5]: potentiate the anti-proliferative activity of rapamycin; also recorded: increases the percent inhibition of rapamycin alone | inhibition of human coronary artery smooth muscle cell proliferation [6]: inhibit human coronary artery smooth muscle cell proliferation

COc1c(C)c2c(c(O)c1C/C=C(\C)CCC(=O)O)C(=O)OC2 [mycophenolic acid]
in vivo release of mycophenolic acid from EVA/BMA basecoat, effect of BMA topcoat ([3]; 600 μg basecoat with 180 μg rapamycin and 180 μg mycophenolic acid, no, 100 or 200 μg BMA topcoat, FIG. 54): BMA topcoat does slow the release of mycophenolic acid from the basecoat | in vivo elution of mycophenolic acid compared with rapamycin ([3]; EVA/BMA basecoat, FIG. 53 and 54): elutes more completely over a shorter duration than the rapamycin | effect of added mycophenolic acid on the anti-proliferative rapamycin dose response curve ([7]; mycophenolic acid zero to one thousand nanomolar, FIG. 52): potentiates the anti-proliferative activity of rapamycin

Nc1nc(Cl)nc2c1ncn2[C@H]1C[C@H](O)[C@@H](CO)O1 [Cladribine, 2-chlorodeoxyadenosine]
in vivo elution of cladribine compared with rapamycin ([2]; EVA/BMA basecoat, 200 μg BMA topcoat, Yorkshire pigs, FIG. 63): elutes more rapidly than rapamycin | in vivo elution of cladribine over time ([2]; PVDF/HFP 85/15 basecoat 1800 μg (thirty percent cladribine), 300 μg topcoat, Yorkshire pig, FIG. 61): after the first day, the elution of cladribine levels off significantly | in vitro release rate of cladribine, effect of topcoat weight ([8]; non-sterile PVDF/HFP (85/15) coatings, FIG. 59): an increase in topcoat weight or thickness led to a decrease in the release rate of cladribine | in vitro release rate of cladribine, effect of topcoat ([8]; sterile PVDF/HFP coating, FIG. 60): a three-times topcoat led to a drastic decrease of release rate | potency as inhibitor of smooth muscle cells relative to endothelial cells [9]: approximately twice as potent | inhibition of human coronary artery smooth muscle cell proliferation ([7]; cladribine alone, FIG. 58): completely inhibits | effect of added cladribine on the anti-proliferative rapamycin dose response curve ([7]; cladribine zero to nine hundred nanomolar, FIG. 57): potentiate the anti-proliferative activity of rapamycin; also recorded: increases the percent inhibition of rapamycin alone

CC(/C=C/C(=O)NO)=C\[C@@H](C)C(=O)c1ccc(N(C)C)cc1 [trichostatin A]
anti-proliferative IC50 (tumor cell lines): low nM range | inhibition of human coronary artery smooth muscle cell proliferation ([10]; FIG. 51): completely inhibit | pIC50 ([10]; read-out: anti-proliferative IC50): ~8.22
